# Target: Human PDE10A1 (Homo sapiens, UniProt Q9Y233)
# Assay: hPDE10A1 Enzyme Inhibition
# Type: biochemical
# Conditions: [3H]-cAMP substrate; read-out: hPDE10A1 IC50 Band
# Procedure: hPDE10A1 Enzyme Activity: 50 μl samples of serially diluted Human PDE10A1 enzyme were incubated with 50 μl of [^3H]-cAMP for 20 minutes (at 37° C.). Reactions were carried out in Greiner 96 deep well 1 ml master-block. The enzyme was diluted in 20 mM Tris HCl pH7.4 and [^3H]-cAMP was diluted in 10 mM MgCl2, 40 mM Tris.HCl pH 7.4. The reaction was terminated by denaturing the PDE enzyme (at 70° C.) after which [^3H]-5′-AMP was converted to [^3H]-adenosine by adding 25 μl snake venom nucleotidase and incubating for 10 minutes (at 37° C.). Adenosine, being neutral, was separated from charged cAMP or AMP by the addition of 200 μl Dowex resin. Samples were shaken for 20 minutes then centrifuged for 3 minutes at 2,500 r.p.m. 50 μl of supernatant was removed and added to 200 μl of MicroScint-20 in white plates (Greiner 96-well Optiplate) and shaken for 30 minutes before reading on Perkin Elmer TopCount Scintillation Counter.
# hPDE10A1 Enzyme Inhibition: To check inhibition profile 11 μl of serially diluted inhibitor was added to 50 μl of [^3H]-cAMP and 50 ul of diluted Human PDE10A1 and assay was carried out as in the enzyme activity assay. Data was analysed using Prism software (GraphPad Inc).
# Sequence of Human PDE10A1 (Q9Y233 1-779 isoform Q9Y233-1): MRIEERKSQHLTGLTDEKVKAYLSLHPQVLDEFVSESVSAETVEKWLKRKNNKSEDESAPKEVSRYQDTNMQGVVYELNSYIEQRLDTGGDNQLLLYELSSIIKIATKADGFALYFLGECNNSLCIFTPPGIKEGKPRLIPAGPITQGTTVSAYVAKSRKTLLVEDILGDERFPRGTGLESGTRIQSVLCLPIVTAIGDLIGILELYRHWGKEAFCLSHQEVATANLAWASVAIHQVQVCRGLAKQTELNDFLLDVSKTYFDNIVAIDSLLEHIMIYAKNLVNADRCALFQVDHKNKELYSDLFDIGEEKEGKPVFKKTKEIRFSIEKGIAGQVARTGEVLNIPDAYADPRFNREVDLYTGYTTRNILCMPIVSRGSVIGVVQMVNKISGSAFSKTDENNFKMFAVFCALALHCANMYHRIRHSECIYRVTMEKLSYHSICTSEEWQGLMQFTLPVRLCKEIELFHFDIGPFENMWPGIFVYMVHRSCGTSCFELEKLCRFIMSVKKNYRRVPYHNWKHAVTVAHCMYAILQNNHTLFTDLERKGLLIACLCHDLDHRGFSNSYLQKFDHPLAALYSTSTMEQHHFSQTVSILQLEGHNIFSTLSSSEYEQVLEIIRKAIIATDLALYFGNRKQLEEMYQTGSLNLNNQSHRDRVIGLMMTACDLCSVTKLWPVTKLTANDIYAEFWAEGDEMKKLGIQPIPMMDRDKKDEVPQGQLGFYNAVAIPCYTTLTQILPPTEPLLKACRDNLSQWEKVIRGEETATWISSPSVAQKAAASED
row,IC50 [nM],SMILES
1,≤ 50,"c1ccc(-c2ccc(OCc3ccc4ccccc4n3)cc2)c(-c2ccncc2)c1 [Example 380, 2-((2′-(Pyridin-4-yl)biphenyl-4-yloxy)methyl)quinoline]"
2,≤ 50,"Cc1cccc(-c2ccncc2)c1-c1ccc(OCc2ccc3ccccc3n2)cc1 [Example 387, 2-(6′-Methyl-2′-pyridin-4-yl-biphenyl-4-yloxymethyl)-quinoline]"
3,> 50,"CC(C)c1ccccc1-c1ccc(OCc2ccc3ccccc3n2)cc1 [Example 443, 2-((2′-isopropylbiphenyl-4-yloxy)methyl)quinoline]"
4,> 50,"c1ccc(N2CCOCC2)c(-c2ccc(OCc3ccc4ccccc4n3)cc2)c1 [Example 445, 4-(4′-(quinolin-2-ylmethoxy)biphenyl-2-yl)morpholine]"
5,≤ 50,"Fc1ccc2nc(COc3ccc(-c4ccccc4-c4ccncc4)cc3)ccc2c1 [Example 560, 6-fluoro-2-((2′-(pyridin-4-yl)biphenyl-4-yloxy)methyl)quinoline]"
6,≤ 50,"c1ccc(-c2ccc(OCc3cn4ccccc4n3)cc2)c(-c2ccncc2)c1 [Example 619, 2-((2′-(pyridin-4-yl)biphenyl-4-yloxy)methyl)imidazo[1,2-a]pyridine]"
7,≤ 50,"c1cc(-c2ccncc2)c(-c2ccc(OCc3ccc4ccccc4n3)cc2)c(C2OCCCO2)c1 [Example 1857, 2-((2′-(1,3-Dioxan-2-yl)-6′-(pyridin-4-yl)biphenyl-4-yloxy)methyl)quinoline]"
8,≤ 50,COc1ccc(-c2ccccc2-c2ccc(OCc3ccc4ccccc4n3)cc2)cc1F [Example 1858]
9,≤ 50,COc1ccc(-c2ccccc2-c2ccc(OCc3ccc4ccccc4n3)cc2)cc1C(F)(F)F [Example 1860]
10,≤ 50,COc1cc(-c2ccccc2-c2ccc(OCc3ccc4ccccc4n3)cc2)ccc1Cl [Example 1861]
11,> 50,"COc1cc(-c2ccncc2)c(-c2ccc(OCc3ccc4ccccc4n3)cc2)cc1OC [Example 1862, 2-((4′,5′-dimethoxy-2′-(pyridin-4-yl)biphenyl-4-yloxy)methyl)quinoline]"
12,> 50,"O=C(c1cccc(-c2ccncc2)c1-c1ccc(OCc2ccc3ccccc3n2)cc1)N1CCOCC1 [Example 1864, morpholino(6-(pyridin-4-yl)-4′-(quinolin-2-ylmethoxy)biphenyl-2-yl)methanone]"
13,> 50,"Cc1ccc(-c2ccc(OCc3ccc4ccccc4n3)cc2)c(-c2ccncc2)c1 [Example 1867, 2-(4′-Methyl-2′-pyridin-4-yl-biphenyl-4-yloxymethyl)-quinoline]"
14,> 50,"N#Cc1cccc(-c2ccc(OCc3ccc4ccccc4n3)cc2)c1-c1ccncc1 [Example 1870, 2-Pyridin-4-yl-4′-(quinolin-2-ylmethoxy)-biphenyl-3-carbonitrile]"
15,> 50,"Clc1cccc(-c2ccc(OCc3ccc4ccccc4n3)cc2)c1-c1ccncc1 [Example 1872, 2-((3′-Chloro-2′-(pyridin-4-yl)biphenyl-4-yloxy)methyl)quinoline]"
16,> 50,"CCc1ccccc1-c1ccc(OCc2ccc3ccccc3n2)cc1 [Example 1875, 2-((2′-ethylbiphenyl-4-yloxy)methyl)quinoline]"

# The next lines start with the compound.
row,SMILES,IC50 [nM]
1,Clc1ccc(-c2ccccc2-c2ccc(OCc3ccc4ccccc4n3)cc2)cc1 [Example 180],> 50
2,COc1cc(-c2ccccc2-c2ccc(OCc3ccc4ccccc4n3)cc2)ccc1C#N [Example 205],≤ 50
3,N#Cc1ccc(-c2ccccc2-c2ccc(OCc3ccc4ccccc4n3)cc2)cc1 [Example 255],≤ 50
4,COc1ccc(-c2ccccc2-c2ccc(OCc3ccc4ccccc4n3)cc2)cc1C#N [Example 281],≤ 50
5,COc1ccc(-c2ccccc2-c2ccc(OCc3ccc4ccccc4n3)cc2)cc1 [Example 330],> 50
6,"Fc1cccc(-c2ccncc2)c1-c1ccc(OCc2ccc3ccccc3n2)cc1 [Example 381, 2-(6′-Fluoro-2′-pyridin-4-yl-biphenyl-4-yloxymethyl)-quinoline]",> 50
7,"Clc1cccc(-c2ccncc2)c1-c1ccc(OCc2ccc3ccccc3n2)cc1 [Example 382, 2-((2′-Chloro-6′-(pyridin-4-yl)biphenyl-4-yloxy)methyl)quinoline]",≤ 50
8,"N#Cc1cccc(-c2ccncc2)c1-c1ccc(OCc2ccc3ccccc3n2)cc1 [Example 383, 6-Pyridin-4-yl-4′-(quinolin-2-ylmethoxy)-biphenyl-2-carbonitrile]",≤ 50
9,"O=[N+]([O-])c1cccc(-c2ccncc2)c1-c1ccc(OCc2ccc3ccccc3n2)cc1 [Example 384, 2-(2′-Nitro-6′-pyridin-4-yl-biphenyl-4-yloxymethyl)-quinoline]",≤ 50
10,"COc1cccc(-c2ccncc2)c1-c1ccc(OCc2ccc3ccccc3n2)cc1 [Example 385, 2-((2′-Methoxy-6′-(pyridin-4-yl)biphenyl-4-yloxy)methyl)quinoline]",≤ 50
11,"CS(=O)(=O)c1cccc(-c2ccncc2)c1-c1ccc(OCc2ccc3ccccc3n2)cc1 [Example 392, 2-((2′-(methylsulfonyl)-6′-(pyridin-4-yl)biphenyl-4-yloxy)methyl)quinoline]",≤ 50
12,"Fc1ccc(-c2ccncc2)c(-c2ccc(OCc3ccc4ccccc4n3)cc2)c1 [Example 404, 2-((5′-fluoro-2′-(pyridin-4-yl)biphenyl-4-yloxy)methyl)quinoline]",≤ 50
13,"Clc1ccc(-c2ccncc2)c(-c2ccc(OCc3ccc4ccccc4n3)cc2)c1 [Example 405, 2-((5′-Chloro-2′-(pyridin-4-yl)biphenyl-4-yloxy)methyl)quinoline]",≤ 50
14,"N#Cc1ccc(-c2ccncc2)c(-c2ccc(OCc3ccc4ccccc4n3)cc2)c1 [Example 406, 6-(Pyridin-4-yl)-4′-(quinolin-2-ylmethoxy)biphenyl-3-carbonitrile]",≤ 50
15,"Cc1ccc(-c2ccncc2)c(-c2ccc(OCc3ccc4ccccc4n3)cc2)c1 [Example 408, 2-(5′-Methyl-2′-pyridin-4-yl-biphenyl-4-yloxymethyl)-quinoline]",≤ 50
16,"Cc1ccccc1-c1ccc(OCc2ccc3ccccc3n2)cc1 [Example 444, 2-((2′-methylbiphenyl-4-yloxy)methyl)quinoline]",> 50

row,SMILES,IC50 [nM]
1,"N#Cc1cccc(N2CCOCC2)c1-c1ccc(OCc2ccc3ccccc3n2)cc1 [Example 448, 6-morpholino-4′-(quinolin-2-ylmethoxy)biphenyl-2-carbonitrile]",≤ 50
2,"Fc1ccc(N2CCOCC2)c(-c2ccc(OCc3ccc4ccccc4n3)cc2)c1 [Example 469, 4-(5-fluoro-4′-(quinolin-2-ylmethoxy)biphenyl-2-yl)morpholine]",≤ 50
3,"Cc1ccc(COc2ccc(-c3ccccc3-c3ccncc3)cc2)nc1 [Example 501, 5-methyl-2-((2′-(pyridin-4-yl)biphenyl-4-yloxy)methyl)pyridine]",≤ 50
4,"Fc1ccc(-c2ccncc2)c(N2CCC(OCc3ccc4ccccc4n3)CC2)c1 [Example 1706, 2-((1-(5-fluoro-2-(pyridin-4-yl)phenyl)piperidin-4-yloxy)methyl)quinoline]",> 50
5,"O=Cc1cccc(-c2ccncc2)c1-c1ccc(OCc2ccc3ccccc3n2)cc1 [Example 1854, 6-(Pyridin-4-yl)-4′-(quinolin-2-ylmethoxy)biphenyl-2-carbaldehyde]",≤ 50
6,N#Cc1cc(-c2ccccc2-c2ccc(OCc3ccc4ccccc4n3)cc2)ccc1Cl [Example 1855],≤ 50
7,"Fc1ccc(-c2ccc(OCc3ccc4ccccc4n3)cc2)c(-c2ccncc2)c1 [Example 1856, 2-(4′-Fluoro-2′-pyridin-4-yl-biphenyl-4-yloxymethyl)-quinoline]",≤ 50
8,"Cc1cc(-c2ccccc2-c2ccc(OCc3ccc4ccccc4n3)cc2)ccn1 [Example 1859, 2-((2′-(2-methylpyridin-4-yl)biphenyl-4-yloxy)methyl)quinoline]",≤ 50
9,c1ccc(-c2ccccc2-c2ccc(OCc3ccc4ccccc4n3)cc2)cc1 [Example 1863],> 50
10,N#Cc1ccc(-c2ccccc2-c2ccc(OCc3ccc4ccccc4n3)cc2)cc1Cl [Example 1865],> 50
11,"CCCc1ccccc1-c1ccc(OCc2ccc3ccccc3n2)cc1 [Example 1866, 2-((2′-propylbiphenyl-4-yloxy)methyl)quinoline]",> 50
12,"c1ccc(N2CCCC2)c(-c2ccc(OCc3ccc4ccccc4n3)cc2)c1 [Example 1868, 2-((2′-(pyrrolidin-1-yl)biphenyl-4-yloxy)methyl)quinoline]",> 50
13,COc1ccc(-c2ccccc2-c2ccc(OCc3ccc4ccccc4n3)cc2)cc1Cl [Example 1869],> 50
14,"c1ccc(-c2ccoc2)c(-c2ccc(OCc3ccc4ccccc4n3)cc2)c1 [Example 1871, 2-((2′-(furan-3-yl)biphenyl-4-yloxy)methyl)quinoline]",> 50
15,"c1cc(-c2ccncc2)c(-c2ccc(OCc3ccc4ccccc4n3)cc2)c(N2CCOCC2)c1 [Example 1873, 4-(6-(pyridin-4-yl)-4′-(quinolin-2-ylmethoxy)biphenyl-2-yl)morpholine]",> 50
16,"CN(C)Cc1cccc(-c2ccncc2)c1-c1ccc(OCc2ccc3ccccc3n2)cc1 [Example 1874, N,N-dimethyl-1-(6-(pyridin-4-yl)-4′-(quinolin-2-ylmethoxy)biphenyl-2-yl)methanamine]",> 50
